Measurements published in patent US20050014706A1, “Method of treating tuberculosis” (priority 2003, published 2005).
In brackets after ≈: the same amount, converted by molar mass. Like-named read-outs stand apart in the source and are kept apart here.

Tests used:
tubercle bacillus [1] = settings: literature (Luna-Herrera 1995; Truffot-Pernot 1995); cited from earlier work
tubercle bacillus [2] = settings: literature; cited from earlier work
M. tuberculosis H37Rv [3] = test: MIC vs. M. tuberculosis H37Rv, microplate Alamar Blue assay (MABA); type: cell-based; settings: for enhancement in potency of macrolide over counterpart ketolide: vs. telithromycin, RU004, RU56006 respectively; for MIC / activity vs. M. tuberculosis in words: in vitro
VERO cells [4] = test: Cytotoxicity against VERO cells (MTS, 72 hours); settings: for IC50: read-out: Vero IC50 (toxicity); for toxicity / cytotoxicity in words: in vitro study
[5] = test system: J774.1 macrophage cell line; test: Cytotoxicity against J774.1 macrophage cell line; type: cell-based, murine
VERO cells [6] = test system: VERO cells
M. tuberculosis H37Rv [7] = settings: positive quality control, MABA; cited from earlier work
M. tuberculosis Erdman = type: in vivo, BALB/c mice; settings: for activity against M. tuberculosis in the acute phase of infection: 100 and 200 mg/kg qd (RU60887 100 mg/kg only)
M. tuberculosis = test: Activity against M. tuberculosis in mice (follow-up, dose response); type: in vivo
[8] = Overt toxicity in mice, escalating 5-day cycles; type: in vivo, Balb/C mice; settings: once daily 5-day cycles, sequentially 200, 300, 400, 500 mg/kg
Protocol: Prior to assessing in vivo efficacy, RU66252 and RU69874 were administered to pairs of female Balb/C mice once daily for 5-day cycles, and observed for overt signs of toxicity (e.g., weight loss, ruffled fur, and huddling), after which the mice were rested for 1 or 2 days. Then the dosage was increased for another 5-day cycle. Overall, the same mice received sequentially for 5 days: 200, 300, 400, and 500 mg/kg.

[9] = Table 2a, 11,12-diols, read-out: Anti-TB Activity MIC
[10] = Mus musculus, J774.1, Table 1a, J774 cells, read-out: J774 IC50 (toxicity)
[11] = Mycobacterium tuberculosis, H37RV, Table 1a, 11,12-carbamate derivatives, read-out: Anti-TB Activity MIC
[12] = Mycobacterium tuberculosis, H37RV, read-out: minimum inhibitory concentration (MIC) against M. tuberculosis
[13] = Table 3, parallel-synthesis carbazate library products
[14] = Table 1a, 11,12-carbamate derivatives, read-out: Anti-TB Activity MIC

## CC[C@H]1OC(=O)[C@H](C)[C@@H](O[C@H]2C[C@@](C)(OC)[C@@H](O)[C@H](C)O2)[C@H](C)[C@@H](O[C@@H]2O[C@H](C)C[C@H](N(C)C)[C@H]2O)[C@](C)(OC)C[C@@H](C)C(=O)[C@H](C)[C@@H](O)[C@]1(C)O [Clarithromycin, reference compound]
Tubercle bacillus [1]
  activity in mouse models: marginal and nil
Tubercle bacillus [2]
  MIC against the tubercle bacillus: 4 to 64 µg/mL
M. tuberculosis H37Rv [3]; [9]
  MIC: 8 µM (≈ 5.98 µg/mL)
M. tuberculosis H37Rv [3]
  enhancement in potency of macrolide over counterpart ketolide: 16 fold
VERO cells [4]; Table 2a, Vero cells
  IC50: 41 µM

## CC[C@H]1OC(=O)[C@@](C)(F)C(=O)[C@H](C)[C@@H](O[C@@H]2O[C@H](C)C[C@H](N(C)C)[C@H]2O)[C@](C)(OCC#Cc2cc(-c3cnc4ccccc4c3)no2)C[C@@H](C)C(=O)[C@H](C)[C@H]2NC(=O)O[C@@]21C [Compound A323348]
[5]; [10]
  IC50: 15.3 µM
VERO cells [6]
  toxicity / cytotoxicity in words: comparable to clarithromycin
M. tuberculosis H37Rv [3]; [11]
  MIC: 0.38 µM (≈ 0.323 µg/mL)
M. tuberculosis H37Rv [3]; [12]
  MIC: 0.38 µM (≈ 0.323 µg/mL)
M. tuberculosis H37Rv [3]
  MIC / activity vs. M. tuberculosis in words: very low
VERO cells [4]; Chlorocebus sabaeus, Vero
  IC50: 24.3 µM

## CCC1OC(=O)C(C)C(OC2CC(C)(OC)C(O)C(C)O2)C(C)C(OC2OC(C)CC(N(C)C)C2O)C(C)(OC)CC(C)C(=O)C(C)C2N(N=CC3=C(Cl)c4cc(F)ccc4OC3)C(=O)OC12C (stereo not shown) [H9′]
M. tuberculosis H37Rv [3]; [13]
  MIC: ?3 μM

## CC[C@H]1OC(=O)[C@H](C)[C@@H](O[C@H]2CC(C)(OC)[C@@H](O)[C@H](C)O2)[C@H](C)[C@@H](O[C@@H]2O[C@H](C)C[C@H](N(C)C)[C@H]2O)[C@](C)(OC)C[C@@H](C)C(=O)[C@H](C)[C@H]2N(NCc3c(Sc4ccc(Cl)cc4)nc4sccn34)C(=O)O[C@]12C (stereo partly shown) [H11′]
M. tuberculosis H37Rv [3]; [13]
  MIC: 35.4 µM (≈ 37.8 µg/mL)

## NNC(=O)c1ccncc1 [Isoniazid]
M. tuberculosis H37Rv [7]
  expected MIC range of quality control compound: 0.025 to 0.1 µg/mL

## CO[C@H]1/C=C/O[C@@]2(C)Oc3c(C)c(O)c4c(O)c(c(/C=N/N5CCN(C)CC5)c(O)c4c3C2=O)NC(=O)/C(C)=C\C=C\[C@H](C)[C@H](O)[C@@H](C)[C@@H](O)[C@@H](C)[C@H](OC(C)=O)[C@@H]1C [RMP, Rifampin, reference compound]
[5]; [10]
  IC50: 32.7 µM
M. tuberculosis H37Rv [3]; [11]
  MIC: 0.076 µM (≈ 0.0625 µg/mL)
VERO cells [4]; Chlorocebus sabaeus, Vero
  IC50: 46.7 µM

## CCC1OC(=O)C(C)(F)C(=O)C(C)C(OC2OC(C)CC(N(C)C)C2O)C(C)(OC)CC(C)C(=O)C(C)C2N(NCCCc3ccnc4ccccc34)C(=O)OC12C (stereo not shown) [RU3562]
M. tuberculosis H37Rv [3]; [14]
  MIC: 16 µM (≈ 13 µg/mL)

## CC[C@H]1OC(=O)[C@H](C)[C@@H](O[C@H]2C[C@@](C)(OC)[C@@H](O)[C@H](C)O2)[C@H](C)[C@@H](O[C@@H]2O[C@H](C)C[C@H](N(C)C)[C@H]2O)[C@](C)(O)C[C@@H](C)/C(=N\OCOCc2ccccc2)[C@H](C)[C@@H](O)[C@]1(C)O [RU29558]
M. tuberculosis H37Rv [3]; [9]
  MIC: 7 µM (≈ 6.08 µg/mL)
VERO cells [4]; Table 2a, Vero cells
  IC50: 28.2 µM

## CC[C@H]1OC(=O)[C@H](C)C(=O)[C@H](C)[C@@H](O[C@@H]2O[C@H](C)C[C@H](N(C)C)[C@H]2O)[C@](C)(OC)C[C@@H](C)C(=NOCOCCOC)[C@H](C)[C@@H](O)[C@]1(C)O [RU54615]
M. tuberculosis H37Rv [3]; [9]
  MIC: >128 µM

## CC[C@H]1OC(=O)[C@H](C)C(=O)[C@H](C)[C@@H](O[C@@H]2O[C@H](C)C[C@H](N(C)C)[C@H]2O)[C@](C)(OC)C[C@@H](C)C(=O)[C@H](C)[C@@H](O)[C@]1(C)O [RU56006]
M. tuberculosis H37Rv [3]; [9]
  MIC: >128 µM

## CCCCCCCCCCN1CCCC(O/N=C2\[C@H](C)C[C@@](C)(OC)[C@H](O[C@@H]3O[C@H](C)C[C@H](N(C)C)[C@H]3O)[C@@H](C)C(=O)[C@@H](C)C(=O)O[C@H](CC)[C@@](C)(O)[C@H](O)[C@H]2C)C1 (stereo partly shown) [RU60887]
M. tuberculosis Erdman
  activity against M. tuberculosis in the acute phase of infection: less activity
[5]; Mus musculus, J774.1, Table 2a, J774 cells, read-out: J774 IC50 (toxicity)
  IC50: 4.7 µM
M. tuberculosis H37Rv [3]; Mycobacterium tuberculosis, H37RV, Table 2a, 11,12-diols, read-out: Anti-TB Activity MIC
  MIC: 0.125 µM (≈ 0.103 µg/mL)
M. tuberculosis H37Rv [3]; [12]
  MIC: 0.12 µM (≈ 0.0991 µg/mL)
M. tuberculosis H37Rv [3]
  MIC / activity vs. M. tuberculosis in words: very low
VERO cells [4]; Chlorocebus sabaeus, Vero
  IC50: 27.6 µM
VERO cells [4]
  toxicity / cytotoxicity in words: comparable to clarithromycin

## CC[C@H]1OC(=O)[C@H](C)C(=O)[C@H](C)[C@@H](O[C@@H]2O[C@H](C)C[C@H](N(C)C)[C@H]2O)[C@](C)(OC)C[C@@H](C)C(=O)[C@H](C)[C@H]2N(CCCCn3ccnc3)C(=O)O[C@]12C [RU61205]
M. tuberculosis H37Rv [3]; [14]
  MIC: 112 µM (≈ 82.3 µg/mL)

## CC[C@H]1OC(=O)[C@H](C)C(=O)[C@H](C)[C@@H](O[C@@H]2O[C@H](C)C[C@H](N(C)C)[C@H]2O)[C@](C)(OC)C[C@@H](C)C(=NOC2CCCN(C/C=C/c3ccc(-c4ccccc4)cc3)C2)[C@H](C)[C@@H](O)[C@]1(C)O (stereo partly shown) [RU61804]
[5]; Table 2a, J774 cells, read-out: J774 IC50 (toxicity)
  IC50: 3.9 µM
M. tuberculosis H37Rv [3]; [9]
  MIC: 0.5 µM (≈ 0.439 µg/mL)
VERO cells [4]; Table 2a, Vero cells
  IC50: 9.12 µM

## CC[C@H]1OC(=O)[C@H](C)[C@@H](O[C@H]2CC(C)(OC)[C@@H](O)[C@H](C)O2)[C@H](C)[C@@H](O[C@@H]2O[C@H](C)C[C@H](N(C)C)[C@H]2O)[C@](C)(OC)C[C@@H](C)C(=O)[C@H](C)[C@H]2N(CCCCc3ccnc4ccccc34)C(=O)O[C@]12C (stereo partly shown) [RU66080]
[5]; Table 1a, J774 cells, read-out: J774 IC50 (toxicity)
  IC50: 4.95 µM
M. tuberculosis H37Rv [3]; [14]
  MIC: 0.44 µM (≈ 0.421 µg/mL)
VERO cells [4]; Table 1a, Vero cells
  IC50: 8.1 µM

## CC[C@H]1OC(=O)[C@H](C)C(OC2CC(C)(OC)[C@@H](O)[C@H](C)O2)[C@H](C)[C@@H](O[C@@H]2O[C@H](C)C[C@H](N(C)C)[C@H]2O)[C@](C)(OC)C[C@@H](C)C(=O)[C@H](C)[C@H]2N(NCCCc3ccnc4ccccc34)C(=O)O[C@]12C (stereo partly shown) [RU66252]
M. tuberculosis; 150 mg/kg and 200 mg/kg
  M. tuberculosis inhibition in mice: significant
M. tuberculosis; between 50 and 200 mg/kg
  dose response in mice: shows a dose response
M. tuberculosis; mice
  activity against M. tuberculosis in mice: active
M. tuberculosis Erdman; 10^−2 dilution plates
  colonies from treated mouse lung homogenates: no colonies
M. tuberculosis Erdman
  activity against M. tuberculosis in the acute phase of infection: dose-dependent activity
M. tuberculosis H37Rv [3]; [14]
  MIC: 0.25 µM (≈ 0.239 µg/mL)
M. tuberculosis H37Rv [3]; [13]
  MIC: 9 µM (≈ 8.61 µg/mL)
M. tuberculosis H37Rv [3]; follow-up assays
  MIC vs. M. tuberculosis: about 9 μM
M. tuberculosis H37Rv [3]
  MIC / activity vs. M. tuberculosis in words: very low
  enhancement in potency of macrolide over counterpart ketolide: 16 fold
M. tuberculosis H37Rv [3]; read-out: minimum inhibitory concentration (MIC) against M. tuberculosis
  MIC: 0.25 µM (≈ 0.239 µg/mL)
VERO cells [4]
  toxicity / cytotoxicity in words: comparable to clarithromycin
[8]
  overt signs of toxicity (weight loss, ruffled fur, huddling): No signs of overt toxicity

## CC[C@H]1OC(=O)[C@H](C)C(=O)[C@H](C)[C@@H](O[C@@H]2O[C@H](C)C[C@H](N(C)C)[C@H]2O)[C@](C)(OC)C[C@@H](C)C(=O)[C@H](C)[C@H]2N(CCCn3cnc4c3c(=O)n(C)c(=O)n4C)C(=O)O[C@]12C [RU66740]
M. tuberculosis H37Rv [3]; [14]
  MIC: >128 µM

## CC[C@H]1OC(=O)[C@H](C)[C@@H](O[C@H]2C[C@@](C)(OC)[C@@H](O)[C@H](C)O2)[C@H](C)[C@@H](O[C@@H]2O[C@H](C)C[C@H](N(C)C)[C@H]2O)[C@](C)(OC)C[C@@H](C)C(=O)[C@H](C)[C@H]2N(CCCCn3cnc(-c4cccnc4)c3)C(=O)O[C@]12C [RU69874]
M. tuberculosis Erdman
  activity against M. tuberculosis in the acute phase of infection: less activity
[5]; J774 cells
  selectivity index (SI): 154
[5]; [10]
  IC50: 58.6 µM
[5]; Mus musculus, J774.1, based on J774 cells, read-out: toxicity
  IC50: 59 µM
M. tuberculosis H37Rv [3]; [11]
  MIC: 0.38 µM (≈ 0.369 µg/mL)
M. tuberculosis H37Rv [3]; [12]
  MIC: 0.38 µM (≈ 0.369 µg/mL)
M. tuberculosis H37Rv [3]
  MIC / activity vs. M. tuberculosis in words: very low
  enhancement in potency of macrolide over counterpart ketolide: 126 fold
VERO cells [4]; Chlorocebus sabaeus, Vero
  IC50: 27 µM
VERO cells [4]
  toxicity / cytotoxicity in words: comparable to clarithromycin
[8]
  overt signs of toxicity (weight loss, ruffled fur, huddling): No signs of overt toxicity

## CC[C@H]1OC(=O)[C@H](C)C(=O)[C@H](C)[C@@H](O[C@@H]2O[C@H](C)C[C@H](N(C)C)[C@H]2O)[C@](C)(OC)C[C@@H](C)C(=O)[C@H](C)[C@H]2N(NCCc3ccccc3)C(=O)O[C@]12C [RU70645]
M. tuberculosis H37Rv [3]; [14]
  MIC: 14 µM (≈ 10.2 µg/mL)

## CC[C@H]1OC(=O)[C@H](C)C(=O)[C@H](C)[C@@H](O[C@@H]2O[C@H](C)C[C@H](N(C)C)[C@H]2O)[C@](C)(OC)C[C@@H](C)C(=O)[C@H](C)[C@H]2N(CCCCn3cnc(-c4cccnc4)c3)C(=O)O[C@]12C [Telithromycin, reference compound]
M. tuberculosis H37Rv [3]; [14]
  MIC: 48 µM (≈ 39 µg/mL)
M. tuberculosis H37Rv [3]
  MIC / activity vs. M. tuberculosis in words: even less active than clarithromycin

## cethromycin [ABT773, reference compound]
M. tuberculosis H37Rv [3]
  MIC against M. tuberculosis: 3 µM
M. tuberculosis H37Rv [3]; [14]
  MIC: 3 µM
VERO cells [4]; Table 1a, Vero cells
  IC50: > 105 µM
